Consider one molecule from patent publication US20210023223A1, “HYDROCARBON / LIPID - CAROTENOID COMPLEXES” (IP SCIENCE LIMITED, priority 2018, published 2021).

Like-named read-outs stand apart in the source and are kept apart here.

Common to all, as to format: in vivo, human
The subject of series [1] is moderately obese volunteers. Description: Inflammatory Oxidative Damage (IOD) of serum. As for the experimental part:
(§1) Study Design. The total number of volunteers recruited to take part in the study was 18 (9 male and 9 female subjects) Caucasians 40-67 years old.
(§2) Products Formulated with Lycopene was developed and made by Lycotec Ltd. (Cambridge, United Kingdom). The daily dose was 1 capsule of 20 mg of lycopene, and it was taken with the main meal of the day. The period of administration was 1 month.
Serum samples were incubated overnight in 0.05 M PBS acetate buffer (pH 5.6) to imitate the type of oxidative damage, which occurs during the release of lysosomes following neutrophil degranulation. The following morning the reaction was stopped using trichloroacetic acid. The concentration of the end products such as malonic dialdehyde (MDA), and other possible thiobarbituric acid reactive substances (TBARS), was then measured by colorimetry using reagents and kits from Cayman Chemical (MC, USA).

Series [2] in a line: Lycopene in serum and cerumen after 20 mg lycopene for 1 month. The settings on record: n = 18; for concentration at 1 month: both sexes, human, oral, after 20 mg lycopene daily for one month. How it is done:
as §1, §2
Blood was collected by phlebotomy in the morning, in the hospital, from the arm veins of patients following night fast. The serum was separated from the rest of the clotted mass by centrifugation; aliquots were then stored in code-labelled tubes for blinded analysis and stored at −80° C. until use.
For sample collection from the surface of the facial skin and samples of the cerumen all study participants were requested to avoid facial and ear hygienic manipulations for 24 hours before sampling, which was carried out in the morning in parallel with blood sample collection. Skin surface sample collection and preparation was performed as previously described. Briefly, samples were collected using polyester swabs from the surface of the facial skin (the sides of the nose). During the procedure two samples were taken (one swab per side). Each collected sample was placed on the surface of a microscope slide. A second microscope slide was pressed against the surface of the first one. This procedure provided a pair of identical smears. All slides with collected samples were coded to provide sample anonymity for blinded analysis and stored at −20° C. until further analysis.
The lycopene concentration in all serum samples was measured in duplicate by high-performance liquid chromatography with modifications. Briefly, 400 μl of serum was mixed with 400 μl of ethanol and was extracted twice with 2 ml hexane. The combined hexane layers were evaporated to dryness in a vacuum (Scan Speed 32 centrifuge) and the residue reconstituted to a volume of 100 μl in sample solution (absolute ethanol—methylene chloride, 5:1, v/v). The specimens were centrifuged again (15 minutes at 10,000 g) and clear supernatant was transferred to HPLC vials. Five microliters of the extract was injected into an Acquity HSS T3 75×2.1 mm 1.8 μm column (Waters, USA) preceded by a Acquity HSS T3 1.8 μm VanGuard precolumn (Waters, USA) and eluted isocratically at 45° C. with the mobile phase (acetonitrile—0.08% phosphoric acid solution—tert-Butyl methyl ether, 70:5:25, v/v/v) at a flow rate of 0.5 ml/min. The lycopene peak was detected by a Photodiode Array Detector (Waters, USA) at 474 nm. The peak area was measured using Empower 3 software (Waters, Mass.). The lycopene concentration in serum samples was calculated by reference to an analytical standard (lycopene from tomato, L9879, Sigma, USA).

The test system of series [3] is moderately obese volunteers. Put plainly: Tissue oxygenation StO2 by NIRS, 20 mg lycopene study. As for the experimental part: as §1, §2
Thenar eminence and forearm muscles of the patients were used as a tissue target for the assessment of oxygen saturation, StO2, or combined level of oxygenated haemoglobin and myoglobin. StO2 was assessed by continuous wavelength near-infrared spectroscopy, NIRS, with wide-gap second-derivative (In Spectra, Hutchinson Technology, MN, USA). The measurements were taken at different time points.
The recording was initiated after 15 min of rest in a supine position before occlusion of the brachial artery. It was then continued during stagnant ischemia induced by rapidly inflating the cuff to 50 mm Hg above systolic BP. The ischemia lasted for 3 min, and the recording period lasted for another 5 min after that until StO2 was stabilized. The area under the hyperaemic curve, AUC, of the recorded signal for the settling time in the post-occlusion period was then calculated as described earlier in % O2/minute.

Series [4] has as its system middle-aged volunteers, facial skin. Put plainly: Lycopene trial, facial skin surface material. Conditions: 7 mg formulated lycopene daily, 4 weeks. As for the experimental part:
Group II—15 middle-aged (7 males and 8 females, 48-65 years old) for lycopene intervention and
Group II—participants received 7 mg formulated lycopene,
Daily dose of each carotenoid product was taken in one capsule with the main evening meal for 4 weeks (from day 1 to day 28 of the study).
For RSSC sample collection all participants of the study were requested to avoid facial hygienic manipulations for 24 hours before material collection, which was carried out in the morning. These samples were collected only before initiation of astaxanthin supplementation (day 0) and at the end of the study (day 29). RSSC sample collection and preparation was performed according to previously described procedures. Briefly, RSSC samples were collected using polyester swabs from the surface of the facial skin (the sides of the nose). During the procedure two samples were taken (one swab per side). Each collected sample was placed on the surface of a microscope slide. A second microscope slide was pressed against the surface of the first one. […] All slides with collected samples (i.e. four slides per study participant per time point) were coded to provide sample anonymity for blinded analysis. All collected samples were sent to the laboratory of Lycotec Ltd for further processing and eventual microscopic examination.
For morphological analysis of RSSC samples one slide of the first pair was stained with hematoxylin and eosin in order to identify any cells or cell remnants. The second slide was stained using Oil Red O (Lipid Stain, ab150678, Abcam, Cambridge, UK) for lipid visualization and lipid droplet size evaluation. One slide from the other pair was stained with crystal violet solution (Gram staining) to assess the level of microorganism presence. The remaining slides were kept unstained for possible future use.
The analysis of typical structural elements of the RSSC comprised lipid droplet measurements, counting characteristic lipid crystals and desquamated corneocytes, and evaluation of bacterial presence as previously described. The indicated micro objects/structures were quantified using Cell^B imaging software (Digital Imaging Solutions, Olympus, Japan). All microscopic samples were blinded before their examinations.
Smears collected from the surface of the facial skin were fixed with methanol. Permeabilised corneocytes and sebum present in the material were stained for direct immunofluorescence using fluorescein isothiocyanate-conjugated monoclonal antibody against lycopene recently generated by our group. Fluorescent staining was visualised using Nikon Eclipse 50i microscope with fluorescence attachment. The semi-quantitative analysis was based on visually assessing fluorescence levels in corneocytes and surrounding sebum in 20 random fields of view at ×200 magnification. Fluorescence intensity in the samples was classified using the following scoring system: 0—no fluorescence; 0.5—traces of fluorescence; 1—weak fluorescence; 2—moderate fluorescence; 3—strong fluorescence of some cells or areas of sebum background; 4—extremely strong fluorescence (confluent fluorescent elements within corneocytes). Fluorescence assessment in each sample was repeated blindly three times.

Setting [5] is: after 20 mg lycopene daily for one month.

As to `CC(C)=CCC/C(C)=C/C=C/C(C)=C/C=C/C(C)=C/C=C/C=C(C)/C=C/C=C(C)/C=C/C=C(\C)CCC=C(C)C` [Lycopene], the IOD in series [1] (setting [5]) turned out to be 60 ± 5.8 μM MDA. For the same molecule, the IOD in series [1] (before, n = 18) stood at 107 ± 11.6 μM MDA. In series [2] (before), this molecule yielded a Lycopene in cerumen of 0.29 ± 0.05 ng/mg and a Lycopene in serum of 137 ± 14.5 ng/mL. Also, the concentration at 1 month in series [2] (cerumen, read-out: Lycopene in cerumen) came out at 900 ± 120 ng/g. In series [2] (serum, read-out: Lycopene in serum), the concentration at 1 month was determined as 310 ± 29.9 ng/mL. For the same molecule, the StO2 in series [3] (setting [5]) is reported as 80.4 ± 5.3^ AUC mm. The StO2 in series [3] (before, n = 18) was 64.1 ± 4.9^ AUC mm. Moreover, in series [4], the “Bacterial load on the surface of the skin” value is on record as “significant reduction of the bacterial load”, the “Lycopene presence in desquamated corneocytes” value is given as “significantly increased for the whole period of supplementation”, the “Lycopene presence in sebum” value is on record as “lycopene amount growth only during the first two weeks of supplementation” and the “Rate of desquamation of corneocytes” value is given as “noticeably lower”. Besides, in series [4], the Sebum production result was “significant increase of the sebum production”.
